Results: patent publication US11458079B2, “Sunscreen cosmetic” (JO COSMETICS CO., LTD., priority 2019, dated 2022)
“Also recorded” adds a separate entry of the source.

Assay: Dissolution in the aqueous phase (C phase) of the O/W cosmetic composition
Type: physicochemical
Settings: 5.00 mass % in C phase (aqueous phase) of O/W formulation of Comparative Example 4
From the text: (4) The gel emulsion was mixed with the components of C phase (aqueous phase), thereby preparing an O/W cosmetic composition. […] Hydrophobized fine particle titanium oxide” alone, the sunscreen cosmetic of Comparative Example 3 simultaneously containing “9. Trans-resveratrol aglycone,” which was not a polysaccharide, and “7. […] Since it is generally difficult to apply the formulation that could not be produced in such a small lot experiment to mass production, the production of emulsified cosmetic compositions for use in sunscreen containing trans-resveratrol monosaccharide glycoside turned out to be impractical.

OC[C@H]1O[C@@H](Oc2cc(O)cc(/C=C/c3ccc(O)cc3)c2)[C@H](O)[C@@H](O)[C@@H]1O [piceid, Piceid]
Solubility in the aqueous phase / water solubility: could not be dissolved; also recorded: insufficient
Solubility in the aqueous phase / water solubility (listed as resveratrol monosaccharide glycoside): could not be dissolved uniformly
